Laboratory results reported in EP4752152A1, “STEROID COMPOUND, AND PREPARATION METHOD THEREFOR AND USE THEREOF” (Cholesgen (Shanghai) Co.Ltd., priority 2023, dated 2025).
pIC50: −log10 of the molar value. Read-outs that look alike come from different tables or passages of the source.

How the values were obtained:
SREBP pathway = assay: SREBP luciferase reporter gene system (SRE-luciferase assay); format: cell-based, human; settings: Huh-7/SRE-luc cells, sterol-deficient medium, 0.01-10 µM
Procedure, shortened: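 Readout was SRE-driven luciferase normalised to GFP fluorescence in lysates of stably transfected Huh-7/SRE-luc hepatoma cells. Compounds (0.01, 0.03, 0.1, 0.3, 1.0, 3.0, 10 µM; DMSO control) were applied for 16 h in sterol-depleted medium with 2 µM lovastatin and 10 µM mevalonate; IC50 from variable-slope fit.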

[1] = test system: Fatty Acid Synthase (FASN) gene; assay: Inhibition of FASN gene expression (qPCR) in Huh-7 cells; format: cell-based, human; settings: read-out: FASN IC50
Procedure: Huh-7 cells (purchased from ATCC) were cultured in DMEM medium (containing 10% fetal bovine serum LONSERA S711-001S) at 37°C in a 5% CO2 incubator. After 24 hours, the original medium was aspirated and replaced with DMEM starvation medium (containing 5% lipoprotein deficient serum (LPDS), 2 µM lovastatin, and 10 µM mevalonate). The control group was treated with dimethyl sulfoxide (DMSO), while the compound treatment groups were treated with different concentrations of compounds. The highest concentration of the compound was 3000 nM, with 3-fold dilutions, totaling 5 concentrations. The cells were cultured for 16 hours. Cell lysis was performed, followed by reverse transcription from cells to cDNA, and qPCR was performed to detect the expression of the SREBP target gene Fatty Acid Synthase (FASN) gene (FASN gene forward primer sequence: 5'-[…]-3', reverse primer sequence: 5'-[…]-3'). The IC50 was calculated. The test data for each test compound were analyzed using Prism software (with the DMSO-treated group as the reference to calculate the compound inhibition rate, fitted using the Prism log(inhibitor) vs. responseVariable slope (four-parameter) model, calculation formula: Y = Bottom + (Top - Bottom)/(1 + 10^((LogIC50 - X) × HillSlope))), to obtain the IC50 parameters of the compounds. Table 4: Inhibition results of FASN gene expression by compounds from some examples

[2] = Homo sapiens, Huh-7, 16 h, Huh-7 cells, starvation medium, 16 hours, qPCR, class symbols

Structure (SMILES)	IC50 (SREBP pathway; Homo sapiens, Huh-7, 16 h) [µM]	pIC50 [1, 2]	also measured
C[C@H](CCC[C@@H](O)c1nc2cnccc2n1C)[C@H]1CC[C@H]2[C@H]3[C@H](CC[C@]12C)[C@@]1(C)CC[C@H](O)[C@H](O)[C@@H]1CC3(F)F (stereo in doubt) [Compound 326, (1R,3aS,3bS,5aR,6R,7S,9aR,9bS,11aR)-4,4-difluoro-1-[(2R,6R)-6-hydroxy-6-(1-methylimidazo[5,4-c]pyridin-2-yl)hexan-2-yl]-9a,11a-dimethylhexadecahydro-1H-cyclopenta[1,2-a]phenanthrene-6,7-diol]	0.011	> 6.70	
COc1cccc(F)c1C(O)CCC[C@@H](C)[C@H]1CC[C@H]2C3=C(F)C[C@H]4[C@@H](O)[C@@H](O)CC[C@]4(C)[C@H]3CC[C@]12C (stereo partly drawn) [Compound 105, (1R,3aR,5aR,6R,7S,9aR,9bR,11aR)-4-fluoro-1-[(2R)-6-(2-fluoro-6-methoxyphenyl)-6-hydroxyhexan-2-yl]-9a,11a-dimethyl-2,3,3a,5,5a,6,7,8,9,9a,9b,10,11,11a-tetradecahydro-1H-cyclopenta[1,2-a]phenanthrene-6,7-diol]	0.109	6.30 to 6.70	
COc1cc(Cl)ccc1[C@H](O)CCC[C@@H](C)[C@H]1CC[C@H]2[C@H]3[C@H](CC[C@]12C)[C@@]1(C)CC[C@H](O)[C@H](O)[C@@H]1CC3(F)F [Compound 113, (1R,3aS,3bS,5aR,6R,7S,9aR,9bS,11aR)-1-[(2R,6R)-6-(4-chloro-2-methoxyphenyl)-6-hydroxyhexan-2-yl]-4,4-difluoro-9a,11a-dimethylhexadecahydro-1H-cyclopenta[1,2-a]phenanthrene-6,7-diol]	0.228	6.30 to 6.70	
COc1cccc(F)c1C(CCC[C@@H](C)[C@H]1CC[C@H]2[C@H]3[C@H](CC[C@]12C)[C@@]1(C)CC[C@H](O)[C@H](O)[C@@H]1CC3(F)F)=NO (single isomer, unassigned) [Compound 210, [(1E,5R)-5-[(1R,3aS,3bS,5aR,6R,7S,9aR,9bS,11aR)-4,4-difluoro-6,7-dihydroxy-9a,11a-dimethylhexadecahydro-1H-cyclopenta[1,2-a]phenanthren-1-yl]-1-(2-fluoro-6-methoxyphenyl)hexylidene]hydroxylamine or [(1Z,5R)-5-[(1R,3aS,3bS,5aR,6R,7S,9aS,9bS,11aR)-4,4-difluoro-6,7-dihydroxy-9a,9b,11a-trimethylhexadecahydro-1H-cyclopenta[1,2-a]phenanthren-1-yl]-1-(2-fluoro-6-methoxyphenyl)hexylidene]hydroxylamine]			IC50 (SREBP pathway; 16 hours): 0.017 µM; pIC50 ([1]; Homo sapiens, Huh-7, 16 h): > 6.70
C[C@H](CCCC(O)c1nc2ccccc2[nH]1)[C@H]1CC[C@H]2[C@H]3[C@H](CC[C@]12C)[C@@]1(C)CC[C@H](O)[C@H](O)[C@@H]1CC3(F)F (stereo partly drawn) [Compound 303, (1R,3aS,3bS,5aR,6R,7 S,9aR,9bS,11aR)-4,4-Difluoro-1-[(2R)-6-hydroxy-6-(1H-benzo[d]imidazol-2-yl)hexan-2-yl]-9a,11a-dimethylhexadecahydro-1H-cyclopenta[1,2-a]phenanthrene-6,7-diol]	0.109	> 6.70	
C[C@H](CCCC(O)c1cccnc1)[C@H]1CC[C@H]2[C@H]3[C@H](CC[C@]12C)[C@@]1(C)CC[C@H](O)[C@H](O)[C@@H]1CC3(F)F (stereo partly drawn) [Compound 54, (1R,3aS,3bS,5aR,6R,7S,9aR,9bS,11aR)-4,4-difluoro-1-[(2R)-6-hydroxy-6-(pyridin-3-yl)hexan-2-yl]-9a,11a-dimethylhexadecahydro-1H-cyclopenta[1,2-a]phenanthrene-6,7-diol]	0.35	6.30 to 6.70	
C[C@H](CCC[C@@H](O)c1nc2ccccc2n1C)[C@H]1CC[C@H]2[C@H]3[C@H](CC[C@]12C)[C@@]1(C)CC[C@H](O)[C@H](O)[C@@H]1CC3(F)F [Compound 307, (1R,3aS,3bS,5aR,6R,7S,9aR,9bS,11aR)-4,4-difluoro-1-[(2R,6R)-6-hydroxy-6-(1-methylbenzo[d]imidazol-2-yl)hexan-2-yl]-9a,11a-dimethylhexadecahydro-1H-cyclopenta[1,2-a]phenanthrene-6,7-diol]	0.054	> 6.70	
COc1ccc(C(O)CCC[C@@H](C)[C@H]2CC[C@H]3[C@H]4[C@H](CC[C@]23C)[C@@]2(C)CC[C@H](O)[C@H](O)[C@@H]2CC4(F)F)c(OC)n1 (stereo partly drawn) [Compound 177, (1R,3aS,3bS,5aR,6R,7 S,9aR,9bS,11aR)-1-[(2R)-6-(2,6-Dimethoxypyridin-3-yl)-6-hydroxyhexan-2-yl]-4,4-difluoro-9a,11a-dimethylhexadecahydro-1H-cyclopenta[1,2-a]phenanthrene-6,7-diol]	0.186	> 6.70	
COc1ncccc1C(O)CCC[C@@H](C)[C@H]1CC[C@H]2[C@H]3[C@H](CC[C@]12C)[C@@]1(C)CC[C@H](O)[C@H](O)[C@@H]1CC3(F)F (single isomer, unassigned) [Compound 193, (1R,3aS,3bS,5aR,6R,7S,9aR,9bS,11aR)-4,4-difluoro-1-[(2R,6R)-6-hydroxy-6-(2-methoxypyridin-3-yl)hexan-2-yl]-9a,11a-dimethylhexadecahydro-1H-cyclopenta[1,2-a]phenanthrene-6,7-diol or (1R,3aS,3bS,5aR,6R,7S,9aR,9bS,11aR)-4,4-difluoro-1-[(2R,6S)-6-hydroxy-6-(2-methoxypyridin-3-yl)hexan-2-yl]-9a,11a-dimethylhexadecahydro-1H-cyclopenta[1,2-a]phenanthrene-6,7-diol]			IC50 (SREBP pathway; 16 hours): 0.072 µM; pIC50 ([1]; Huh-7 cells, starvation medium, 16 hours, qPCR, class symbols): 6.30 to 6.70
C[C@H](CCCC(O)c1nccs1)[C@H]1CC[C@H]2[C@H]3[C@H](CC[C@]12C)[C@@]1(C)CC[C@H](O)[C@H](O)[C@@H]1CC3(F)F (stereo partly drawn) [Compound 89, (1R,3aS,3bS,5aR,6R,7S,9aR,9bS,11aR)-4,4-difluoro-1-[(2R)-6-hydroxy-6-(1,3-thiazol-2-yl)hexan-2-yl]-9a,11a-dimethylhexadecahydro-1H-cyclopenta[1,2-a]phenanthrene-6,7-diol]	0.183	> 6.70	
C[C@H](CCCC(O)c1cccc2ncn(C)c12)[C@H]1CC[C@H]2[C@H]3[C@H](CC[C@]12C)[C@@]1(C)CC[C@H](O)[C@H](O)[C@@H]1CC3(F)F (single isomer, unassigned) [Compound 299, (1R,3aS,3bS,5aR,6R,7S,9aR,9bS,11aR)-4,4-difluoro-1-[(2R,6R)-6-hydroxy-6-(3-methylbenzo[d]imidazol-4-yl)hexan-2-yl]-9a,11a-dimethylhexadecahydro-1H-cyclopenta[1,2-a]phenanthrene-6,7-diol or (1R,3aS,3bS,5aR,6R,7S,9aR,9bS,11aR)-4,4-difluoro-1-[(2R,6S)-6-hydroxy-6-(3-methylbenzo[d]imidazol-4-yl)hexan-2-yl]-9a,11a-dimethylhexadecahydro-1H-cyclopenta[1,2-a]phenanthrene-6,7-diol]	0.033	> 6.70	
C[C@H](CCC[C@@H](O)c1cc2ccccc2o1)[C@H]1CC[C@H]2[C@H]3[C@H](CC[C@]12C)[C@@]1(C)CC[C@H](O)[C@H](O)[C@@H]1CC3(F)F (stereo in doubt) [Compound 317, (1R,3aS,3bS,5aR,6R,7S,9aR,9bS,11aR)-1-[(2R,6R)-6-(1-benzofuran-2-yl)-6-hydroxyhexan-2-yl]-4,4-difluoro-9a,11a-dimethylhexadecahydro-1H-cyclopenta[1,2-a]phenanthrene-6,7-diol]			IC50 (SREBP pathway; 16 hours): 0.155 µM
COc1ccc(C(O)CCC[C@@H](C)[C@H]2CC[C@H]3C4=C(F)C[C@H]5[C@@H](O)[C@@H](O)CC[C@]5(C)[C@H]4CC[C@]23C)cc1 (stereo partly drawn) [Compound 51, (1R,3aR,5aR,6R,7S,9aR,9bR,11aR)-4-fluoro-1-[(2R)-6-hydroxy-6-(4-methoxyphenyl)hexan-2-yl]-9a,11a-dimethyl-2,3,3a,5,5a,6,7,8,9,9a,9b,10,11,11a-tetradecahydro-1H-cyclopenta[1,2-a]phenanthrene-6,7-diol]	0.212		
C[C@H](CCCC(O)c1ccc(F)nc1F)[C@H]1CC[C@H]2[C@H]3[C@H](CC[C@]12C)[C@@]1(C)CC[C@H](O)[C@H](O)[C@@H]1CC3(F)F (stereo partly drawn) [Compound 148, (1R,3aS,3bS,5aR,6R,7S,9aR,9bS,11aR)-1-[(2R)-6-(2,6-difluoropyridin-3-yl)-6-hydroxyhexan-2-yl]-4,4-difluoro-9a,11a-dimethylhexadecahydro-1H-cyclopenta[1,2-a]phenanthrene-6,7-diol]	0.08		
COc1cc(OC)c([C@H](O)CCC[C@@H](C)[C@H]2CC[C@H]3[C@H]4[C@H](CC[C@]23C)[C@@]2(C)CC[C@H](O)[C@H](O)[C@@H]2CC4(F)F)c(F)n1 (single isomer, unassigned) [Compound 235]	0.115		
